Results as given in patent US11786466B2, “Topical formulations for treating dermatological disorders including male pattern baldness” (XYON HEALTH INC., priority 2017, dated 2023).

Tests used:
[1] = In vitro skin permeation, modified Franz-type diffusion cell; format: in vitro ADME; conditions: human epidermis, receiver compartment, n = 5
Procedure: An original Franz-type diffusion cell system was modified to accommodate widened vertical columns and removal of the bowl shape. The diffusion area was 0.636 cm^2 with a receiver capacity of approximately 3.0 mL. The receiver volume for each cell was individually calibrated.
Human epidermis samples were prepared according to standard protocols. […] The samples were used as a membrane between the two chambers in the Franz cells. After about 6-8 hours, fat cells were carefully removed from the full thickness skin. The skin sections were cut into 2.5×2.5 cm squares, sealed in aluminum foil and frozen at −20° C. Prior to preparation, the samples were thawed to room temperature, immersed in 60° C. water, and the epidermis was gently separated from the remaining tissue with forceps and allowed to dry.
Before being mounted on the Franz cell, each epidermal sheet was visually inspected to avoid any possible defects. Additionally, the electrical resistance of isolated epidermis was measured to ensure the integrity of the barrier membrane. Epidermis samples with a resistance above 18 kΩ/cm^3 were used for experiments.
The upper and lower parts of the Franz cell were sealed with paraffin film and fastened together by a clamp. […]
Dutasteride concentration was determined using LC/MS-MS according to the following parameters: […]

[2] = tested on: dihydrotestosterone (DHT); conditions: cited from earlier work
5-α-reductase = conditions: cited from earlier work
[3] = after sustained oral administration

SMILES	Permeated Amount After 24 hours (dutasteride) [1]	Suppression of DHT production [2, 3]	Inhibition of the three 5-α-reductase isoforms (5-α-reductase)	Reduction of serum DHT levels [2, 3]	Typical reduction in DHT serum concentration ([2]; oral finasteride therapy, comparison value)	Inhibition of Type I 5-α-reductase (5-α-reductase)	Inhibition of Type II and Type III 5-α-reductase (5-α-reductase)
C[C@]12C=CC(=O)N[C@@H]1CC[C@@H]1[C@@H]2CC[C@]2(C)[C@@H](C(=O)Nc3cc(C(F)(F)F)ccc3C(F)(F)F)CC[C@@H]12 [Dutasteride]	never detected	up to 99%	inhibits all three 5-α-reductase isoforms	–	–	–	–
CC(C)(C)NC(=O)[C@H]1CC[C@H]2[C@@H]3CC[C@H]4NC(=O)C=C[C@]4(C)[C@H]3CC[C@]12C [Finasteride]	–	–	–	65-70%	60-70%	does not inhibit	selectively inhibits
